Results on three compounds are retold here after patent EP4627105B1, “METHOD FOR IDENTIFYING A MODIFIED AMINO ACID DEGRON (MAAD)” (ETH Zurich, priority 2022, dated 2024).

This assay concerns K562 cells. Description: Fluorescent in-cell reporter (FLICR) protein stability assay: turnover of C-terminally amidated sfGFP after nucleofection, followed by flow cytometry. The assay is classed as cell-based, human. The conditions noted are these: for destabilization of sfGFP carrying a primary amide on its C-terminus (sfGFP-Pep1-Ser-NH2): Fig. 1C, inhibitor concentration not given; for Amidated sfGFP degradation: Fig. 2G. On the procedure:
HEK293T cells were cultured in DMEM containing Glutamax (Thermo Fisher Scientific) and K562 cells were cultured in RPMI 1640 containing Glutamax (Thermo Fisher Scientific) under standard conditions. Growth media were further supplemented with 10% (v/v) Fetal Bovine Serum (Thermo Fisher Scientific) and 100 U/ml Penicillin-Streptomycin (Thermo Fisher Scientific). Stably transduced cells were selected using 2 µg/ml Puromycin (Thermo Fisher Scientific), 500 µg/ml Gene-ticin (Thermo Fisher Scientific) or 10 µg/ml Blasticidin (Thermo Fisher Scientific) starting two days after transduction. Induction of doxycycline-dependent vectors was performed using 500 ng/ml doxycycline (Merck) every 48 hours. Cells were treated with epoxomicin (Merck), concanamycin A (Merck) or TAK243 (MedChem Express) as indicated.
For measuring stability of recombinant or semi-synthetic proteins, 1.5- 2.0 x 10^5 cells were nucleofected with 200 pmol of protein in 20 µl cuvettes using a 4D nucleofector device (Lonza) according to the manufacturer's recommendations. Following protein delivery, cells were left to recover at 37°C for 30-45 minutes before measuring initial mean fluorescence intensity values (t0) on a Attune NxT Flow Cytometer (Thermo Fisher Scientific). Subsequent measurements were performed at indicated time points. Baseline-fluorescence values of mock nucleofected cells receiving no protein were measured and subtracted for each time point and baseline-corrected fluorescence values were normalized to t0.
The effect of each modification on protein degradation was measured in the human erythroleukemia cell line K562, which allows for efficient and uniform protein delivery via nucleofection.
Lastly, conjugates of mTagBFP2 and mCherry carrying a primary C-terminal amide were also efficiently degraded when delivered to human embryonic kidney-derived HEK293T cells (Fig.1D and Fig 1E) establishing that C-terminal amidation induces protein degradation in different amino acid-, protein- and cell contexts.
The effect of each modification on protein degradation in the human erythroleukemia cell line K562 was measured. A fluorescent in-cell reporter assay was performed, in which individual semi-synthetic proteins were introduced by electroporation into human cells and their clearance over time was followed by flow cytometry.
This implies that C-terminal amide-bearing proteins (CTAPs) are actively cleared from cells by the ubiquitin proteasome system. CTAP forms of both mCherry and mTagBFP2, but not their unmodified counterparts, were also efficiently degraded when delivered to human embryonic kidney-derived HEK293T cells, as shown in Fig. 2H (see also the explanations above relating to Fig. 1E). The presence of a C-terminal amide is therefore sufficient to induce protein degradation in different peptide-, protein- and cell contexts.

SMILES strings stand for the structures.

As for `NS(=O)(=O)OC[C@H]1C[C@@H](Nc2ccnc3cc(-c4cccc(SC(F)(F)F)c4)nn23)[C@H](O)[C@@H]1O` [TAK243], the “destabilization of sfGFP carrying a primary amide on its C-terminus (sfGFP-Pep1-Ser-NH2)” value is reported as “fully blunted”. Moreover, the “Amidated sfGFP degradation” value (TAK243 (1 µM) upon sfGFP delivery) is on record as “prevented”.
Turning to `C/C=C/[C@H]1O[C@@](O)([C@@H](C)[C@H](O)[C@H](C)[C@H]2OC(=O)/C(OC)=C/C(C)=C/[C@@H](C)[C@@H](O)[C@@H](CC)[C@@H](O)[C@H](C)C/C(C)=C/C=C/[C@@H]2OC)C[C@@H](O[C@H]2C[C@@H](O)[C@H](OC(N)=O)[C@@H](C)O2)[C@@H]1C` [concanamycin A], the “destabilization of sfGFP carrying a primary amide on its C-terminus (sfGFP-Pep1-Ser-NH2)” value is recorded as “not by inhibition of lysosomal acidification”. For the same compound, for the setting “Folimycin (100 nM) upon sfGFP delivery”, the “Amidated sfGFP degradation” value is reported as “not by inhibition of lysosomal acidification”.
Regarding `CC[C@H](C)[C@H](NC(=O)[C@H]([C@@H](C)CC)N(C)C(C)=O)C(=O)N[C@H](C(=O)N[C@@H](CC(C)C)C(=O)[C@@]1(C)CO1)[C@@H](C)O` [epoxomicin], the “destabilization of sfGFP carrying a primary amide on its C-terminus (sfGFP-Pep1-Ser-NH2)” value was “fully blunted”. For the setting “epoxomicin (500 nM) upon sfGFP delivery”, the “Amidated sfGFP degradation” value is “prevented”.
